Source: ChEMBL document CHEMBL2074334, “Altered hepatobiliary disposition of acetaminophen glucuronide in isolated perfused livers from multidrug resistance-associated protein 2-deficient TR(-) rats” (J Pharmacol Exp Ther, 2000)

Molecular target: ATP-binding cassette sub-family C member 2 (Rattus norvegicus, UniProt Q63120)
Assay: TP_TRANSPORTER: decrease in biliary excretion in isolated perfused liver from TR- rat
Assay type: functional

Sequence of ATP-binding cassette sub-family C member 2 (Q63120 whole entry, the tested form may be a part): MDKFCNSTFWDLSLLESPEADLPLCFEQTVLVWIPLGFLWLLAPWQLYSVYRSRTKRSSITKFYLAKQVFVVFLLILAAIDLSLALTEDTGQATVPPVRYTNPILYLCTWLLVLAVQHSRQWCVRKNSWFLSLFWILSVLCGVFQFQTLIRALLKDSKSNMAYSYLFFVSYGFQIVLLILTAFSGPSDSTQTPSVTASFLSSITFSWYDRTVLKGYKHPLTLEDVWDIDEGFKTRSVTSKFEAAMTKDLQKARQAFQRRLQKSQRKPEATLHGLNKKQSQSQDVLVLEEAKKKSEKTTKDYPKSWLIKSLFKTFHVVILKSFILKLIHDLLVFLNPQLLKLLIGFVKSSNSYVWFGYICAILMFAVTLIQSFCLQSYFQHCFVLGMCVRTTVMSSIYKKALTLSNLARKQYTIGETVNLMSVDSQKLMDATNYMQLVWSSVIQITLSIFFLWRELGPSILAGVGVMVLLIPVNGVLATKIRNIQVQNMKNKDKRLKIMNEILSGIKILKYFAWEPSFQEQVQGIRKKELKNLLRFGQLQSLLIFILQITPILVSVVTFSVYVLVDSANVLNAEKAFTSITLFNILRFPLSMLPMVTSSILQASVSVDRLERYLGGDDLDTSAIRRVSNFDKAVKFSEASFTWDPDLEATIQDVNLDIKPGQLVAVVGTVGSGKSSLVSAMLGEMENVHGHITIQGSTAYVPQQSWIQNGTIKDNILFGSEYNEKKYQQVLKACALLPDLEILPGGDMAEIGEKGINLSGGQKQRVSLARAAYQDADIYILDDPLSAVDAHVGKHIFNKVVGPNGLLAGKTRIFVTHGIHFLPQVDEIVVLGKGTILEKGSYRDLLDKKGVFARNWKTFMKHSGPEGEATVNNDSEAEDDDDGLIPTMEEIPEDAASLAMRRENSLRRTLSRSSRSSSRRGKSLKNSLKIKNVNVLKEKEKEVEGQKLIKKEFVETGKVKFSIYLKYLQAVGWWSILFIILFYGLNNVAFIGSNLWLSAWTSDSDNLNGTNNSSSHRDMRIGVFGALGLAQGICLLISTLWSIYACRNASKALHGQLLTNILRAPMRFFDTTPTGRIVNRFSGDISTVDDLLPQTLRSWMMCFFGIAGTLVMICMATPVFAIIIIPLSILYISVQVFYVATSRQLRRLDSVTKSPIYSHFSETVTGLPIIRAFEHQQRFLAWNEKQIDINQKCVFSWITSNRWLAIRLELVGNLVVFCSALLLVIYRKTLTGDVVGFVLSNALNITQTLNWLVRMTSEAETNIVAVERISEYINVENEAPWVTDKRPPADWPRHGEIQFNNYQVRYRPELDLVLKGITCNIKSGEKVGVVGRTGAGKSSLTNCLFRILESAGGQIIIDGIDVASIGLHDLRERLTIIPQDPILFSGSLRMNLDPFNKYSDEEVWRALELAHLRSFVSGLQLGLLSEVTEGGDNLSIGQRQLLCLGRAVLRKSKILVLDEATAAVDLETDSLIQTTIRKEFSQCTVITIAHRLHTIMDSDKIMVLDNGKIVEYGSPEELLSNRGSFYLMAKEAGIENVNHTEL

## CC(=O)Nc1ccccc1.O=S(=O)(O)O
  Activity: substrate [+]

## CC(=O)Nc1ccc(O[C@@H]2O[C@H](C(=O)O)[C@@H](O)[C@H](O)[C@H]2O)cc1 [ACETAMINOPHEN GLUCURONIDE]
  Activity: substrate [+]
